Experimental data as given in patent US20070254288A1, “Diagnostic methods for pain sensitivity and chronicity and for tetrahydrobiopterin-related disorders” (The General Hospital Corporation, priority 2005, published 2007).
pIC50: −log10 of the molar value. “Also recorded” adds a separate entry of the source.

Experiments:
Sprague Dawley rats [1] = experiment: Spared nerve injury (SNI) model: mechanical (von Frey) and cold (acetone) allodynia; assay type: in vivo, rat
Procedure: (§1) Adult male Sprague Dawley rats (150-200 g, Charles River Laboratories) were used. For the SNI model two branches of the sciatic nerve, the common peroneal and the tibial nerve, were ligated and sectioned distally. For the CCI model the sciatic nerve was constricted with three Dexon 4/0 ligatures. For the SNL model, the L5 spinal nerve was tightly ligated. All surgical procedures were under isoflurane anesthesia. For the Formalin test 50 μl of 5% formaldehyde solution were injected into a hindpaw and flinches were counted per minute up to 60 min. Paw inflammation was induced with 50 μl complete Freund's adjuvant (CFA) injected into a hindpaw. Nociceptive analysis was done blinded, and animals were fully habituated to the room and test cages. Mechanical allodynia was assessed with graded strength monofilament von Frey hairs (0.0174-20.9 gram, log scaled), cold allodynia with the acetone test and heat hyperalgesia with the Hargreaves test. Drugs (Sigma) were injected intraperitoneally or intrathecally through a spinal catheter, osmotic pumps were used for infusion. Control animals received vehicle. L4/5 DRG and spinal cord tissue was processed for QRT-PCR, Western blotting, in situ hybridization and immunofluorescence studies.
(§2) Animals were fully habituated and experiments performed blinded. Threshold for eliciting a withdrawal reflex to graded strength monofilament von Frey hairs (0.0174-20.9 g) was measured to assess mechanical allodynia. To measure cold allodynia, a drop of acetone was applied to the plantar hindpaw, and the time the animal spent licking, shaking or lifting the paw was measured (Tegeder et al., J Neurosci 24:1637-1645 (2004)). Paw withdrawal latency to radiant heat (lamp with 8 V, 50 W) assessed heat evoked pain (Ugo Basile).
(§3) DAHP was dissolved in 1:1 polyethylene glycol (PEG400) and 1×PBS, pH 7.4 (15 mg/ml) and administered i.p. or intrathecally (250 μg/kg/h; 5 μl/h). For all i.t. injections/infusions a spinal catheter (Recathco) was used and implanted as described (Kunz et al., Pain 110:409-418 (2004)). Infusions with an osmotic pump (Alzet). 6R-BH4 in ACSF was injected i.t. (10 μg, single 10 μl injection). N-acetyl-serotonin in 1×PBS pH 7.4 containing 3% ethanol was delivered by i.t. infusion (100 μg/kg/h; 5 μl/h). Control animals received the appropriate vehicle. All drugs from Sigma-Aldrich.
Data are means ±SEM. The number of animals per group was 9-12. Areas under the “effect versus time” curves (AUC) were calculated using the linear trapezoidal rule and compared with Student's t-test or univariate analysis of variance (ANOVA) with subsequent t-tests employing a Bonferroni alpha-correction for multiple comparisons. All other data were analyzed with univariate ANOVA or ANOVA for repeated measurements. P at 0.05 for all tests.

GTP cyclohydrolase = settings: determined in vitro (Kolinsky and Gross 2004; Xie et al. 1998); read-out: IC50 range for GTP cyclohydrolase inhibition; cited from earlier work
serotonin = experiment: Serotonin concentrations in spinal cord and brain stem; assay type: in vivo, rat; settings: data not shown
Sprague Dawley rats [2] = experiment: CFA-induced paw inflammation: thermal hyperalgesia (Hargreaves); assay type: in vivo, rat
Procedure: as §1, with “Drugs (Sigma) were injected intraperitoneally or intrathecally through a spinal catheter, osmotic pumps were used for infusion. Control animals received vehicle. L4/5 DRG and spinal cord tissue was processed for QRT-PCR, Western blotting, in situ hybridization and immunofluorescence studies.” left out
(§4) For the Formalin test 50 μl of 5% formaldehyde solution were injected into one hindpaw and flinches were counted per minute up to 60 min. […]
as §2
Data are means ±SEM. […] Areas under the “effect versus time” curves (AUC) were calculated using the linear trapezoidal rule and compared with Student's t-test or univariate analysis of variance (ANOVA) with subsequent t-tests employing a Bonferroni alpha-correction for multiple comparisons. All other data were analyzed with univariate ANOVA or ANOVA for repeated measurements. […]

Sprague Dawley rats [3] = experiment: Chronic constriction injury (CCI) model: mechanical and cold allodynia; assay type: in vivo, rat; settings: 180 mg/kg i.p.
Procedure: as §1, with “Nociceptive analysis was done blinded, and animals were fully habituated to the room and test cages.” left out, “Drugs (Sigma) were injected intraperitoneally or intrathecally through a spinal catheter, osmotic pumps were used for infusion. Control animals received vehicle. L4/5 DRG and spinal cord tissue was processed for QRT-PCR, Western blotting, in situ hybridization and immunofluorescence studies.” left out
as §2, with “Basile). […]” for “Basile).”

[4] = Plasma and CSF concentrations of DAHP (LC/MS-MS); assay type: in vivo, rat; settings: after i.p. injection of 180 mg/kg; compared with IC50 range 100-300 μM
Procedure: Concentrations of DAHP were determined LC/MS-MS on a tandem quadrupole mass spectrometer (PE Sciex API 3000; Applied Biosystems). Extraction was by acetonitrile precipitation; chromatographic separation was performed on a Nucleosil C18 Nautilus column (125×4 mm I.D., 5 μm particle size, 100 Å pore size). Mobile phase was acetonitrile:water (80:20%, v/v), and formic acid (0.1%, v/v). Flow rate was 0.2 ml/min, and injection volume was 5 μl. DAHP eluted at 4.7 min. Mass spectrometer in positive ion mode, 5200 V, 400° C., auxiliary gas flow 6 l/min. The mass transition for the MRM was m/z 127→60. Quantification with Analyst software V1.1 (Applied Biosystems). Coefficient of variation over the calibration range of 10-4000 ng/ml <5%.

Sprague Dawley rats [5] = experiment: Formalin test: flinching and cFos immunoreactive dorsal horn neurons; assay type: in vivo, rat
Procedure: as §1, §4

Sprague Dawley rats [6] = experiment: Nociceptive thresholds in naïve animals (von Frey, radiant heat); assay type: in vivo, rat; settings: naïve animals, 180 mg/kg i.p.; 180 mg/kg
Procedure: as §2, §3

[7] = Observation of general well-being, body weight, gait, activity; assay type: in vivo, rat; settings: acute single or daily treatment, 180 mg/kg i.p.; 180 mg/kg
Sprague Dawley rats [8] = experiment: Spinal nerve ligation (SNL) model: mechanical and cold allodynia; assay type: in vivo, rat; settings: 180 mg/kg i.p.
Procedure: as §1, with “Nociceptive analysis was done blinded, and animals were fully habituated to the room and test cages.” left out, “Drugs (Sigma) were injected intraperitoneally or intrathecally through a spinal catheter, osmotic pumps were used for infusion. Control animals received vehicle. L4/5 DRG and spinal cord tissue was processed for QRT-PCR, Western blotting, in situ hybridization and immunofluorescence studies.” left out
as §2, with “Basile). […]” for “Basile).”

[9] = test system: BH4 synthesis (GTP cyclohydrolase activity); experiment: Tissue concentrations of neopterin and biopterin in L4/5 DRGs (LC/MS-MS); assay type: in vivo, rat; settings: single 180 mg/kg i.p. 3 hours before dissection, 180 mg/kg
Procedure: Homogenized tissue was oxidized with iodine, and pteridines were extracted on Oasis MCX cartridges. Concentrations of total biopterin, neopterin, and the internal standard rhamnopterin were determined by LC/MS-MS. LC analysis under gradient conditions on a Nucleosil C8 column; MS-MS analyses on an API 4000 Q TRAP triple quadrupole mass spectrometer. Precursor-to-product ion transitions of m/z 236→192 for biopterin, m/z 252→192 for neopterin, m/z 265→192 for rhamnopterin were used for the MRM. Linearity from 0.1-50 ng/ml. The coefficient of correlation for all measured sequences was at least 0.99. The intra-day and inter-day variability was <10%.

Rats = experiment: Forced Swim Test; assay type: in vivo, rat; settings: 180 mg/kg i.p., 3 injections
Procedure: FIGS. 8A-8D show the effects of DAHP injection. […] DAHP (250 μg/kg/h) was delivered to the lumbar spinal cord via a chronically implanted spinal catheter connected to an osmotic Alzet pump. Infusion started right after SNI surgery and continued 14 days, flow rate 5 μl/h (n=8, p<0.05). […] Effect versus time AUCs were used for statistical comparisons. […] Rats (n=7 per condition) received 3 separate injections of DAHP (180 mg/kg, i.p.), at 1 hr, 19 hrs, and 23 hrs after the first exposure to forced swimming. This commonly used treatment regimen identifies in rats agents with antidepressant or pro-depressant effects in humans (Mague et al., J Pharmacol Exp Ther 305:323-330 (2003)). Retest sessions (forced swim for 300 sec) occurred 24 hr after the first swim exposure and were videotaped from the side of the water cylinders and scored by raters unaware of the treatment condition. Rats were rated at 5 sec intervals throughout the duration of the retest session; at each 5 sec interval the predominant behavior was assigned to one of four categories: immobility, swimming, climbing, or diving. The sum of these scores are shown for each modality. For all panels, error SEM.

nitric oxide production = experiment: Nitric oxide production in L4/5 DRGs after SNI; assay type: in vivo, rat; settings: 7 d after SNI, once daily treatment
GCH1 = experiment: LPS induction of GCH1 in cells of haplotype carriers and non-carriers; assay type: cell-based, human; settings: cells of individuals with versus without the pain protective haplotype
[10] = repeated daily injections, measured two-three hours after injection

For `Nc1cc(O)nc(N)n1` [DAHP, 2,4-diamino-6-hydroxypyrimidine], the “mechanical and cold pain hypersensitivity, established” value (Sprague Dawley rats [1]; 180 mg/kg/d i.p. starting 17 days after nerve injury) was “produced a significant reduction of mechanical and cold pain hypersensitivity; also recorded: decreases pain hypersensitivity”, the “relative efficacy, extent of return to pre-surgery baseline values” (Sprague Dawley rats [1]; SNI model, versus comparators measured earlier (Decosterd et al. 2004)) was “exceeds that of non-sedating doses of morphine, gabapentin, amitriptyline, and carbamazepine” and the “analgesia on repeated daily administration” value (Sprague Dawley rats [1]; SNI, repeated daily administration) was “continues to produce analgesia without obvious loss of activity”. The “dose dependence of effect on mechanical and cold allodynia” value (Sprague Dawley rats [1]; SNI, repeated daily i.p. injections) was “dose dependent efficacy; also recorded: dose-dependent reductions in mechanical and cold allodynia”, the “mechanical and cold allodynia” value (Sprague Dawley rats [1]; continuous intrathecal infusion 250 μg/kg/h, 14 days from SNI surgery) was “reduces mechanical and cold allodynia” and the “linear relationship between dose and effect (R), cold allodynia” value (Sprague Dawley rats [1]; [10]) was 0.754. The “linear relationship between dose and effect (R), mechanical allodynia” value (Sprague Dawley rats [1]; [10]) was 0.709, the “time to reversal of mechanical and cold pain hypersensitivity” value (Sprague Dawley rats [1]; single dose 180 mg/kg i.p. four days after SNI) was at most 60 min and the “mechanical (von Frey) and cold allodynia” value (Sprague Dawley rats [1]; single dose 180 mg/kg i.p. four days after SNI, 180 mg/kg) was “significantly reduced mechanical (von Frey) and cold allodynia; also recorded: reverses mechanical and cold pain hypersensitivity”. For the same compound, the pIC50 (GTP cyclohydrolase) was 3.52 to 4.00, the “serotonin concentrations in spinal cord and brain stem” value (serotonin) was “did not, however, significantly reduce serotonin concentrations” and the thermal hyperalgesia (Sprague Dawley rats [2]; 180 mg/kg i.p., before CFA and 24 hours after CFA) was “significantly reduced thermal hyperalgesia; also recorded: reduce CFA-evoked heat hyperalgesia”. The thermal hyperalgesia (Sprague Dawley rats [2]; single intrathecal injection of 1 mg/kg, 1 mg/kg) was “reduced thermal hyperalgesia”, the “mechanical and cold allodynia” value (Sprague Dawley rats [3]) was “analgesic effects; also recorded: dose-dependent reductions in mechanical and cold allodynia” and the “plasma and CSF concentrations” value [4] was “within the IC50 range”. The formalin-induced flinching behavior (Sprague Dawley rats [5]; 180 mg/kg i.p. before formalin, first and second phases) was “significantly reduced formalin-induced flinching behavior in both phases; also recorded: significantly reduces the flinching behavior in the first and second phases”, the “number of cFos immunoreactive neurons in ipsilateral dorsal horn” value (Sprague Dawley rats [5]; 180 mg/kg i.p., two hours after formalin injection) was “reduced number of cFOS immunoreactive neurons; also recorded: significant reduction in the number of cFos immunoreactive neurons” and the “mechanical threshold and radiant heat paw withdrawal latency” value (Sprague Dawley rats [6]) was “failed to modify mechanical and thermal threshold; also recorded: did not change the mechanical threshold for paw withdrawal or radiant heat evoked paw withdrawal latency”. For the same compound, the “general well-being, body weight, gait, activity” value [7] was “No deleterious effect; also recorded: had no effect”, the “mechanical and cold allodynia” value (Sprague Dawley rats [8]) was “analgesic effects; also recorded: dose-dependent reductions in mechanical and cold allodynia” and the “biopterin levels in ipsilateral L4/5 DRGs” value ([9]; 24 h after CFA) was “reduced neopterin and biopterin; also recorded: significantly reduces elevated biopterin levels”. For the same compound, the “neopterin levels in ipsilateral L4/5 DRGs” value ([9]; 24 h after CFA) was “reduced neopterin and biopterin; also recorded: completely prevents the inflammation-evoked increase of neopterin”, the “biopterin levels in L4/5 DRGs” value ([9]; 7 days after SNI) was “reduced neopterin and biopterin; also recorded: significantly reduces biopterin levels” and the “neopterin levels in L4/5 DRGs” value ([9]; 7 days after SNI) was “reduced neopterin and biopterin; also recorded: completely prevents the nerve injury induced increases in neopterin”. The “performance in the forced swim test” value (Rats) was “had no effect” and the “nitric oxide levels in L4/5 DRGs” value (nitric oxide production) was “normalization of NO levels; also recorded: prevented by DAHP treatment”.
For lipopolysaccharide [LPS], the GCH1 induction (GCH1) was “induced GCH1 to a lesser extent”.
